# Results from patent US8962664B2, “Selective glycosidase inhibitors and uses thereof” (Simon Fraser University, priority 2006, dated 2015).
# Several values for one entry are separate records, joined by “and”; a condition that tells them apart may be missing. Identical values can stand only once.
# What was measured:
# Format in all cases: in vivo, Sprague-Dawley rats
# [1] = system: tau phosphorylation levels in brain tissue; assay: Decrease of rat brain tau phosphorylation levels (NAG-Bt); details: rats, 100 mg/kg/day in food for five days then 50 mg/kg IV, Western blot
# Procedure: The effect of oral administration of NAG-Bt on tau phosphorylation levels in brain tissue in Sprague-Dawley rats was measured. All animals were obtained from Charles-River as 5-week old healthy male Sprague-Dawley rats. Animals were given one week to acclimatize and at six weeks of age the appropriate treatment was initiated. Four animals were fed food containing 100 mg/kg/day of NAG-Bt for five days. Four additional animals fed with food containing no inhibitor were used as controls. At the end of five days, the animals were fasted for 11 hours, then the four animals that received NAG-Bt in food were each given an intravenous tail vein injection of 50 mg/kg NAG-Bt. All animals were fasted for a further 5 hours, then they were sacrificed and brains were removed, stored, and processed as described in Example 29.
# Western blotting of the samples thus obtained was carried out using the α-O-GlcNAc antibody (CTD110.6; Covance) and a-Actin antibody as described previously.^106 For Tau blotting, pS199, pS214, pS217, pS262, pS396, and pS422 (Biosource), Tau-5 (Lab Vision; a non-PTM dependent tau antibody), Tau-1 (Chemicon; selective for nonphosphorylated Ser195, Ser198, Ser199, and Ser202), and pS404 (Sigma) antibodies were used according to the manufacturer's protocols. Equal amounts of homogenized brain tissue from an animal treated with and without NAG-Bt were separated by SDS-PAGE followed by probing with each of the primary antibodies and an appropriate secondary antibody (either an anti-mouse or anti-rabbit IgG-HRP conjugate, as appropriate). The resulting Western blots are shown in FIGS. 2A-I, and reveal decreases of brain tau phosphorylation at multiple sites following treatment with NAG-Bt; lanes labeled “+” indicate samples from animals receiving NAG-Bt, while lanes labeled “-” indicate samples from animals receiving vehicle alone.
# [2] = system: levels of O-GlcNAc modification in brain and muscle tissue; assay: Dose-dependent elevation of rat brain and muscle O-GlcNAc levels (IV); details: rats, seven hours
# Procedure: The effect of intravenous (IV) administration of (3aR,5R,6S,7R,7aR)-5-(hydroxymethyl)-2-propyl-5,6,7,7a-tetrahydro-3aH-pyrano[3,2-d]thiazole-6,7-diol (Compound 54; hereinafter referred to as NAG-Bt) on levels of O-GlcNAc modification in brain and muscle tissue in Sprague-Dawley rats was measured. Animals were obtained from Charles-River as 5-week old healthy male Sprague-Dawley rats. Animals were given one week to acclimatize and at six weeks of age the appropriate treatment was initiated. Eight animals were given intravenous tail vein injections of various concentrations of NAG-Bt or vehicle alone (PBS); doses of NAG-Bt included 0, 2, 5, 10, 25, 50, 100, and 250 mg/kg. Seven hours later animals were sacrificed and tissues were removed from animals as quickly as possible to minimize post-mortem delay. Tissues were immediately frozen in liquid nitrogen and stored at −80° C. until further use. Homogenization of the tissues was carried out by manual grinding followed by homogenization in cell lysis buffer (50 mM Tris, pH 8.0, 1 mM PMSF, 0.1% NP-40, 1 mM NAG-Bt) using a tissue homogenizer (IKA) at 4° C. Insoluble cell debris was removed by centrifugation at 17,900×g for 20 minutes at 4° C. and the resulting supernatant was stored at −20° C. until use.
# Western blotting of the samples thus obtained was carried out using the α-O-GlcNAc antibody (CTD110.6; Covance) and the α-actin antibody as described previously.^106 Equal amounts of homogenized brain and muscle tissue from animals treated with NAG-Bt or vehicle alone were separated by SDS-PAGE followed by probing with the primary a-O-GlcNAc antibody and an anti-IgM-mouse IgG-HRP conjugate. […] FIGS. 1C and 1D are Western blots of samples loaded in the upper panels (FIGS. 1A and 1B) probed using anti-β-actin mAb clone AC-40 followed by an anti-mouse IgG-HRP conjugate, and reveal equivalent sample loading.
# [3] = Eight-month repeat dose toxicology study in rats: urinalysis
# Procedure: The toxicological effects of repeated oral administration of (3aR,5R,6S,7R,7aR)-5-(hydroxymethyl)-2-propyl-5,6,7,7a-tetrahydro-3aH-pyrano[3,2-d]thiazole-6,7-diol (NAG-Bt) to Sprague-Dawley rats over eight months was measured. All animals were obtained from Charles-River as 5-week old healthy male Sprague-Dawley rats. Animals were given one week to acclimatize and at six weeks of age the appropriate treatment was initiated. Eight animals were fed food containing 100 mg/kg/day of NAG-Bt for eight months. Eight additional animals fed with food containing no inhibitor were used as controls. […] After four months of dosing, blood and urine samples were collected from four rats in each group.
# [4] = IV 250 mg/kg, densitometry of Western blot
# [5] = rat, in vivo, po, 100 mg/kg/day
smiles,measurement,setting,value
"CCCC1=N[C@@H]2[C@@H](O)[C@H](O)[C@@H](CO)O[C@@H]2S1 [NAG-Bt, (3aR,5R,6S,7R,7aR)-5-(hydroxymethyl)-2-propyl-5,6,7,7a-tetrahydro-3aH-pyrano[3,2-d]thiazole-6,7-diol]",brain tau phosphorylation at Ser214 and Ser404,[1],increases phosphorylation
same,brain tau phosphorylation at Thr231 and Ser396,[1],essentially blocks phosphorylation
same,"brain tau phosphorylation at the Tau-1 epitope (Ser195, Ser198, Ser199, Ser202), Ser199, Ser262, Ser396, Ser422, and Thr231",[1],decreases in phosphorylation
same,O-GlcNAc levels in brain and muscle tissue,"[2]; IV 0 to 250 mg/kg, Western blot",dose-dependent elevation
same,elevation of O-GlcNAc levels over baseline in brain tissue,[2]; [4],roughly 25 fold
same,elevation of O-GlcNAc levels over baseline in muscle tissue,[2]; [4],roughly 10 fold
same,minimum IV dose required for an observable effect in brain,"[2]; IV, O-GlcNAc levels",roughly 5 mg/kg
same,Urine Bilirubin,[3]; [5],neg
same,Urine Color,[3]; [5],Yellow
same,Urine Crystals,[3]; [5],PO4
same,Urine Crystals Amount,[3]; [5],Many
same,Urine Epith,[3]; [5],neg
same,Urine Glucose,[3]; [5],neg
same,Urine Gran Cast,[3]; [5],neg
same,Urine Hyal cast,[3]; [5],neg
same,Urine RBC Cast,[3]; [5],neg
same,Urine Urobil,[3]; [5],Norm
same,Urine Bacteria,"[3]; rats dosed orally for 4 months at 100 mg/kg/day, individual treated rats",Mod- and neg (2×)
